Experimental data: PubChem BioAssay (NCI)
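Tested at 5 concentrations; 48 h exposure; 96-well plates; endpoints linearly interpolated, else capped at highest concentration. TGI is the concentration that stops growth completely.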

Tests used:
Test in all cases: growth of human tumour cells (NCI), 48 h
[1] = tested on: A549 NSCLC
[2] = tested on: HCT-15 colon
[3] = tested on: SK-MEL-28 melanoma
[4] = tested on: SNB-75 CNS
[5] = tested on: 786-0 renal
[6] = tested on: SR leukemia
[7] = tested on: NCI-H226 lung
[8] = tested on: HCT-116 colon
[9] = tested on: OVCAR-5 ovarian
[10] = tested on: SF-539 CNS
[11] = tested on: SNB-19 CNS
[12] = tested on: SNB-78 CNS
[13] = tested on: DMS 114 small cell lung
[14] = tested on: SK-MEL-5 melanoma
[15] = tested on: K-562 leukemia
[16] = tested on: U251 CNS
[17] = tested on: DMS 273 small cell lung
[18] = tested on: NCI-H460 lung
[19] = tested on: RPMI-8226 leukemia
[20] = tested on: IGROV1 ovarian
[21] = tested on: SK-OV-3 ovarian
[22] = tested on: UACC-62 melanoma
[23] = tested on: HT29 colon
[24] = tested on: XF 498 CNS
[25] = tested on: OVCAR-4 ovarian
[26] = tested on: LOX IMVI melanoma
[27] = tested on: M14 melanoma
[28] = tested on: ACHN renal
[29] = tested on: MOLT-4 leukemia
[30] = tested on: OVCAR-8 ovarian
[31] = tested on: CCRF-CEM leukemia
[32] = tested on: EKVX NSCLC
[33] = tested on: LXFL 529 NSCLC
[34] = tested on: M19-MEL melanoma
[35] = tested on: HCC-2998 colon
[36] = tested on: NCI-H23 lung
[37] = tested on: UACC-257 melanoma
[38] = tested on: DLD-1 colon
[39] = tested on: SN12C renal
[40] = tested on: UO-31 renal
[41] = tested on: SF-268 CNS
[42] = tested on: RXF 393 renal
[43] = tested on: HOP-62 NSCLC
[44] = tested on: HL-60(TB) leukemia
[45] = tested on: SW-620 colon
[46] = tested on: COLO 205 colon
[47] = tested on: TK-10 renal
[48] = tested on: A498 renal
[49] = tested on: SK-MEL-2 melanoma
[50] = tested on: NCI-H522 lung
[51] = tested on: KM12 colon
[52] = tested on: KM20L2 colon
[53] = tested on: MALME-3M melanoma
[54] = tested on: CAKI-1 renal
[55] = tested on: OVCAR-3 ovarian
[56] = tested on: HOP-92 NSCLC
[57] = tested on: SF-295 CNS

Measured: TGI

CCN(CC)CCC(=O)NC1c2ccccc2Oc2c(C)cccc21 (stereo unspecified)
> 100 µM: [1] | [2] | [3] | [4] | [5] | [6] | [7] | [8] | [9] | [10] | [11] | [12] | [13] | [14] | [15] | [16] | [17] | [18] | [19] | [20] | [21] | [22] | [23] | [24] | [25] | [26] | [27] | [28] | [29] | [30] | [31] | [32] | [33] | [34] | [35] | [36] | [37] | [38] | [39] | [40] | [41] | [42] | [43] | [44] | [45] | [46] | [47]

COc1ccc(OC)c(NC(=O)C2=C(C)NC(C)=C(C(=O)Nc3cc(OC)ccc3OC)C2c2ccco2)c1
> 100 µM: [1] | [2] | [4] | [48] | [5] | [6] | [7] | [8] | [49] | [9] | [10] | [11] | [12] | [13] | [14] | [15] | [16] | [17] | [50] | [18] | [19] | [20] | [21] | [22] | [23] | [24] | [27] | [28] | [29] | [30] | [51] | [31] | [32] | [33] | [52] | [34] | [36] | [38] | [53] | [54] | [39] | [40] | [41] | [43] | [55] | [45] | [46] | [56] | [47]

O=C(Nc1ccccc1-c1nn(CO)c(=S)n(CO)c1=O)C(F)(F)F
> 100 µM: [1] | [3] | [4] | [5] | [6] | [7] | [8] | [49] | [9] | [10] | [11] | [12] | [13] | [14] | [15] | [16] | [17] | [50] | [18] | [20] | [21] | [22] | [23] | [24] | [25] | [26] | [27] | [28] | [29] | [30] | [51] | [31] | [32] | [33] | [57] | [35] | [36] | [38] | [53] | [54] | [39] | [40] | [41] | [42] | [43] | [55] | [45] | [46] | [56] | [47]
